Results on 1 compound are retold here after patent US8754129B2, “Crystalline vorinostat form VI” (Generics [UK] Limited, priority 2008, dated 2014).

The data set can be described thus: Polymorphic stability on storage at 40° C./75% relative humidity. Format: physicochemical. The note with it: kept at a temperature of 40° C.±2° C. and a relative humidity of 75%±5% for 6 months. The method, then:
All XRPD analyses were carried out on a Bruker D8 Advance instrument, equipped with a copper radiation source with a wavelength of 1.54 Å.
All DSC analyses were carried out on a Perkin Elmer instrument, over a temperature range of 25° C. to 250° C., at a heating rate of 10° C./min, using a closed aluminium pan with a pinhole as crucible.

On to `O=C(CCCCCCC(=O)Nc1ccccc1)NO` [crystalline form VI, N-hydroxy-N′-phenyl-octanediamide], for which the “polymorphic stability (conversion over time to other polymorphs)” value was “very stable polymorphically with no conversion over time to other polymorphs”.
